Data taken from article PMC11844072, “Novel 5,6-dichlorobenzimidazole derivatives as dual BRAFWT and BRAFV600E inhibitors: design, synthesis, anti-cancer activity and molecular dynamics simulations” (BMC Chemistry, 2025).

Assays:
Experiment in all cases: NCI 5-dose assay
Assay type in all cases: cell-based
SNB-75 = settings: Homo sapiens; SNB-75, CNS cancer
Method: (§1) The synthesized dichlorobenzimidazoles 10a–p were assayed for their influence on divers cancer cell lines according to the method presented in the Additional file A.
(§2) 5. Screening of cytotoxic activity against a panel of sixty human tumor cell lines
(§3) The selected compounds by NCI were evaluated for their anticancer activity in a two-stage process. First, these compounds were screened against the full NCI 60 cell lines panel at a single high dose of 10 µM. Then, the output from the single dose screen is reported as a mean graph. […]
(§4) at five different minimal concentrations.
(§5) Assay protocol. The human tumor cell lines of the cancer screening panel are grown in RPMI 1640 medium containing 5% fetal bovine serum and 2 mM L-glutamine. For a typical screening experiment, cells are inoculated into 96 well microtiter plates in 100 µL at plating densities ranging from 5000 to 40,000 cells/well depending on the doubling time of individual cell lines. After cell inoculation, the microtiter plates are incubated at 37 °C, 5% CO 2, 95% air and 100% relative humidity for 24 h prior to addition of the experimental drugs.
(§6) After 24 h, two plates of each cell line are fixed in situ with TCA, to represent a measurement of the cell population for each cell line at the time of drug addition (Tz). The experimental drugs are solubilized in dimethyl sulfoxide at 400-fold the desired final maximum test concentration and stored frozen prior to use. At the time of drug addition, an aliquot of frozen concentrate is thawed and diluted to twice the desired final maximum test concentration with complete medium containing 50 µg/mL gentamicin. Additional four, 10-fold or ½ log serial dilutions are made to provide a total of five drug concentrations plus control.
(§7) Aliquots of […] of these different drug dilutions are added to the appropriate microtiter wells already containing […] of medium, resulting in the required final drug concentrations.
(§8) Following drug addition, the plates are incubated for an additional 48 h at 37 °C, 5% CO 2, 95% air, and 100% relative humidity. For adherent cells, the assay is terminated by the addition of cold TCA.
(§9) Cells are fixed in situ by the gentle addition of 50 µL of cold 50% (w/v) TCA (final concentration, 10% TCA) and incubated for 60 min at 4 °C. The supernatant is discarded, and the plates are washed five times with tap water and air dried. Sulforhodamine B (SRB) solution ([…]) at 0.4% (w/v) in 1% acetic acid is added to each well, and plates are incubated for 10 min at room temperature. After staining, unbound dye is removed by washing five times with 1% acetic acid and the plates are air dried. Bound stain is subsequently solubilized with 10 mM trizma base, and the absorbance is read on an automated plate reader at a wavelength of 515 nm. For suspension cells, the methodology is […]
(§10) the same except that the assay is terminated by fixing settled cells at the bottom of the wells by gently adding 50 µl of 80% TCA (final concentration, 16% TCA). Using the seven absorbance measurements [time zero, (Tz), control growth, (C), and test growth in the presence of drug at the five concentration levels (Ti)], the percentage growth is calculated at each of the drug concentrations […]
(§11) Percentage growth inhibition is calculated as: [(Ti Tz)/(C–Tz)] x 100 for concentrations for which Ti>/=Tz and [(Ti-Tz)/Tz] x 100 for concentrations for which Ti < Tz.
(§12) Three dose response parameters are calculated for each experimental agent. Growth […]
(§13) concentration resulting in a 50% reduction in the net protein increase (as measured by SRB staining) in control cells during the drug incubation. The drug concentration resulting in total growth inhibition (TGI) is calculated from Ti = Tz. […]
(§14) reduction in the measured protein at the end of the drug treatment as compared to that at the beginning) indicating a net loss of cells following treatment is calculated from [(Ti–Tz)/Tz] x 100 =
(§15) _50. Values are calculated for each of these three parameters if the level of activity is reached; […]

SW-620 = settings: Homo sapiens; SW-620, Colon cancer
Method: as §1, §2, §3, §4, §5, §6, §7, §8, §9, §10, §11, §12, §13, §14, §15

UO-31 = settings: Homo sapiens; UO-31, Renal cancer
Method: as §1, §2, §3, §4, §5, §6, §7, §8, §9, §10, §11, §12, §13, §14, §15

SK-MEL-2 = settings: Homo sapiens; SK-MEL-2, Melanoma
Method: as §1, §2, §3, §4, §5, §6, §7, §8, §9, §10, §11, §12, §13, §14, §15

HCC-2998 = settings: Homo sapiens; HCC-2998, Colon cancer
Method: as §1, §2, §3, §4, §5, §6, §7, §8, §9, §10, §11, §12, §13, §14, §15

A549/ATCC = settings: Homo sapiens, Non-small cell lung cancer
Method: as §1, §2, §3, §4, §5, §6, §7, §8, §9, §10, §11, §12, §13, §14, §15

A498 = settings: Homo sapiens; A498, Renal cancer
Method: as §1, §2, §3, §4, §5, §6, §7, §8, §9, §10, §11, §12, §13, §14, §15

MALME-3M = settings: Homo sapiens, Melanoma
Method: as §1, §2, §3, §4, §5, §6, §7, §8, §9, §10, §11, §12, §13, §14, §15

NCI-H460 = settings: Homo sapiens; NCI-H460, Non-small cell lung cancer
Method: as §1, §2, §3, §4, §5, §6, §7, §8, §9, §10, §11, §12, §13, §14, §15

MCF7 = settings: Homo sapiens; MCF7, Breast cancer
Method: as §1, §2, §3, §4, §5, §6, §7, §8, §9, §10, §11, §12, §13, §14, §15

PC-3 = settings: Homo sapiens; PC-3, Prostate cancer
Method: as §1, §2, §3, §4, §5, §6, §7, §8, §9, §10, §11, §12, §13, §14, §15

KM12 = settings: Homo sapiens; KM12, Colon cancer
Method: as §1, §2, §3, §4, §5, §6, §7, §8, §9, §10, §11, §12, §13, §14, §15

MDA-MB-468 = settings: Homo sapiens; MDA-MB-468, Breast cancer
Method: as §1, §2, §3, §4, §5, §6, §7, §8, §9, §10, §11, §12, §13, §14, §15

NCI-H226 = settings: Homo sapiens; NCI-H226, Non-small cell lung cancer
Method: as §1, §2, §3, §4, §5, §6, §7, §8, §9, §10, §11, §12, §13, §14, §15

BT-549 = settings: Homo sapiens; BT-549, Breast cancer
Method: as §1, §2, §3, §4, §5, §6, §7, §8, §9, §10, §11, §12, §13, §14, §15

SF-295 = settings: Homo sapiens; SF-295, CNS cancer
Method: as §1, §2, §3, §4, §5, §6, §7, §8, §9, §10, §11, §12, §13, §14, §15

SK-MEL-28 = settings: Homo sapiens; SK-MEL-28, Melanoma
Method: as §1, §2, §3, §4, §5, §6, §7, §8, §9, §10, §11, §12, §13, §14, §15

786-0 = settings: Homo sapiens; 786-0, Renal cancer
Method: as §1, §2, §3, §4, §5, §6, §7, §8, §9, §10, §11, §12, §13, §14, §15

MOLT-4 = settings: Homo sapiens; MOLT-4, Leukemia
Method: as §1, §2, §3, §4, §5, §6, §7, §8, §9, §10, §11, §12, §13, §14, §15

CAKI-1 = settings: Homo sapiens; CAKI-1, Renal cancer
Method: as §1, §2, §3, §4, §5, §6, §7, §8, §9, §10, §11, §12, §13, §14, §15

SK-MEL-5 = settings: Homo sapiens; SK-MEL-5, Melanoma
Method: as §1, §2, §3, §4, §5, §6, §7, §8, §9, §10, §11, §12, §13, §14, §15

OVCAR-5 = settings: Homo sapiens; OVCAR-5, Ovarian cancer
Method: as §1, §2, §3, §4, §5, §6, §7, §8, §9, §10, §11, §12, §13, §14, §15

HT29 = settings: Homo sapiens, HT-29; HT29, Colon cancer
Method: as §1, §2, §3, §4, §5, §6, §7, §8, §9, §10, §11, §12, §13, §14, §15

Molecule `COC(=O)COc1ccc(C=NNC(=O)Cn2c(-c3ccc(OC)cc3)nc3cc(Cl)c(Cl)cc32)cc1OC` [Compound 10p, Methyl-2-(4-((2-(2-(5,6-dichloro-2-(4-methoxyphenyl)-1H-benzo[d]imidazol-1-yl)acetyl)hydrazono)methyl)-2-methoxyphenoxy)acetate] has a GI50 (SNB-75) of 1.73 µM, a GI50 (SW-620) of over 72.5 µM and a GI50 (UO-31) of 8.11 µM. It also gave a GI50 (SK-MEL-2) of 10 µM, a GI50 (HCC-2998) of 11.7 µM and a GI50 (A549/ATCC) of over 72.5 µM. For the same molecule, the GI50 (A498) was 11.6 µM, the GI50 (MALME-3M) was over 72.5 µM and the GI50 (NCI-H460) was 26.1 µM. The GI50 (MCF7) was over 72.5 µM, the GI50 (PC-3) was 4.38 µM and the GI50 (KM12) was over 72.5 µM. For the same molecule, the GI50 (MDA-MB-468) was 1.48 µM, the GI50 (NCI-H226) was over 72.5 µM and the GI50 (BT-549) was over 72.5 µM. It also gave a GI50 (SF-295) of over 72.5 µM, a GI50 (SK-MEL-28) of over 72.5 µM and a GI50 (786-0) of 2.21 µM. For the same molecule, the GI50 (MOLT-4) was over 72.5 µM, the GI50 (CAKI-1) was 2.77 µM and the GI50 (SK-MEL-5) was over 72.5 µM. The GI50 (OVCAR-5) was 24 µM and the GI50 (HT29) was 1.46 µM.
`COC(=O)COc1ccc(C=NNC(=O)Cn2c(-c3ccc(OC)cc3)nc3cc(Cl)c(Cl)cc32)cc1` [Compound 10h, Methyl-2-(4-((2-(2-(5,6-dichloro-2-(4-methoxyphenyl)-1H-benzo[d]imidazol-1-yl)acetyl)hydrazono)methyl)phenoxy)acetate] was tested, and the GI50 (SNB-75) was 2.14 µM, the GI50 (SW-620) was 22.2 µM and the GI50 (UO-31) was 9.74 µM. The GI50 (SK-MEL-2) was 10.5 µM, the GI50 (HCC-2998) was 13.1 µM and the GI50 (A549/ATCC) was over 82.5 µM. It also gave a GI50 (A498) of 15.4 µM, a GI50 (MALME-3M) of 9.18 µM and a GI50 (NCI-H460) of over 82.5 µM. The GI50 (MCF7) was 4.25 µM, the GI50 (PC-3) was 4.45 µM and the GI50 (KM12) was over 82.5 µM. The GI50 (MDA-MB-468) was 1.68 µM, the GI50 (NCI-H226) was over 82.5 µM and the GI50 (BT-549) was 25.6 µM. The GI50 (SF-295) was over 82.5 µM, the GI50 (SK-MEL-28) was 11.7 µM and the GI50 (786-0) was 3.01 µM. It also gave a GI50 (MOLT-4) of 5.36 µM, a GI50 (CAKI-1) of 5.74 µM and a GI50 (SK-MEL-5) of 80.9 µM. The GI50 (OVCAR-5) was 34.3 µM and the GI50 (HT29) was 1.79 µM.
`COC(=O)COc1cc(C=NNC(=O)Cn2c(-c3ccc(OC)cc3)nc3cc(Cl)c(Cl)cc32)ccc1OC` [Compound 10o, Methyl-2-(5-((2-(2-(5,6-dichloro-2-(4-methoxyphenyl)-1H-benzo[d]imidazol-1-yl)acetyl)hydrazono)methyl)-2-methoxyphenoxy)acetate] was tested, and the GI50 (SNB-75) was 14.4 µM, the GI50 (SW-620) was over 100 µM and the GI50 (UO-31) was 1.82 µM. It also gave a GI50 (SK-MEL-2) of 21.6 µM, a GI50 (HCC-2998) of 13.4 µM and a GI50 (A549/ATCC) of over 100 µM. The GI50 (A498) was over 100 µM, the GI50 (MALME-3M) was over 100 µM and the GI50 (NCI-H460) was over 100 µM. For the same molecule, the GI50 (MCF7) was 100 µM, the GI50 (PC-3) was 17.2 µM and the GI50 (KM12) was over 100 µM. The GI50 (MDA-MB-468) was 4.4 µM, the GI50 (NCI-H226) was over 100 µM and the GI50 (BT-549) was over 100 µM. The GI50 (SF-295) was over 100 µM, the GI50 (SK-MEL-28) was over 100 µM and the GI50 (786-0) was 17.9 µM. It also gave a GI50 (MOLT-4) of 14.2 µM, a GI50 (CAKI-1) of 15.3 µM and a GI50 (SK-MEL-5) of over 100 µM. It also gave a GI50 (OVCAR-5) of over 100 µM and a GI50 (HT29) of 12.9 µM.
